Laboratory results as given in PMC11274521 (Cells, 2024).
One block for each molecule: values may come before it. Ends that are not written are not given here. Peptide text beside a SMILES is read from it. * marks the point of attachment. Biotin = O=C1N[C@H]2[C@H](CS[C@H]2CCCCC(=O)*)N1; Ahx = NCCCCCC(=O)O

Tests used:
albumin (HSA, BSA, FBS) = assay: Biotin pulldown of albumin; assay type: binding, human, bovine; settings: 1 mM biotinylated peptide, 0.03 mM HSA, BSA or FBS, 2 h 4 °C, streptavidin resin
Procedure: For immunoprecipitation (IP), 300 µg of lysate was mixed with 5 µg of human anti-PD-1 (#AF1086, R&D) or mouse anti-PD-L1 (#PA5-20343, Invitrogen-Thermo Fisher Scientific) at 4 °C for 2 h followed by 30 min incubation with 20 µL of Pierce™ Protein A/G Magnetic Beads (ThermoFisher Scientific; catalog #88802) at room temperature followed by Western blot to detect the interacted proteins. In the biotin pulldown procedure, 1 mM biotinylated peptides were incubated with 0.03 mM of albumin (BSA, HSA, the equivalent amount FBS) for 2 h at 4 °C followed by incubating with 50 µL Streptavidin resin (Genescript, Piscataway, NJ, USA) for 1 hr at room temperature, followed by SDS-PAGE to detect the bound albumin.

[1] = mouse, in vivo
physchem = settings: aqueous buffer
human serum albumin = biological target: T1, human serum albumin (human, UniProt P02768 25-609); assay: pull-down; 1 mM biotinylated peptide with 0.03 mM albumin (HSA or BSA) for 2 h at 4 °C, then Streptavidin resin for 1 h at room temperature; bound albumin detected by SDS-PAGE; settings: both partners purified
T1 construct: human serum albumin (HSA); also called HSA

bovine serum albumin = biological target: T2, bovine serum albumin (bovine, UniProt P02769 25-607); assay: as above; settings: both partners purified
T2 construct: bovine serum albumin, used as BSA and as the albumin in an equivalent amount of FBS; also called BSA; albumin of fetal bovine serum (FBS); source: also as the albumin in fetal bovine serum (FBS)
T2 sequence (P02769 25-607): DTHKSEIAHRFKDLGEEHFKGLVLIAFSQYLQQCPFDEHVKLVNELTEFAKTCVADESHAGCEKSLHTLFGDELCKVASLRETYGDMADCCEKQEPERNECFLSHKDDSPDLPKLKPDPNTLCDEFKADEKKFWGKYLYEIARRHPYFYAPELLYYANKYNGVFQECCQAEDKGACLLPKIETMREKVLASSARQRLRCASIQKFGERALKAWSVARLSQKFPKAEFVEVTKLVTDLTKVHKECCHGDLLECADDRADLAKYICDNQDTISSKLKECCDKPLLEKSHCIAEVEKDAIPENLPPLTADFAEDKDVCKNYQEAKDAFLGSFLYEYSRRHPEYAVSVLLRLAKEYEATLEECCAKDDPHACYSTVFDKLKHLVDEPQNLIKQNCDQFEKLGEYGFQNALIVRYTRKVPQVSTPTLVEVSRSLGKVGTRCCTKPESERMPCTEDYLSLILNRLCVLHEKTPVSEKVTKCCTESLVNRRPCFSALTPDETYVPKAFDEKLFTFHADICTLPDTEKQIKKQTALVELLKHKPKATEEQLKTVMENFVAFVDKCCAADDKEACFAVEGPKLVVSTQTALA

Binding to albumin (pulldown, SDS-PAGE) (albumin (HSA, BSA, FBS)): no binding
Molecule: CC[C@H](C)[C@H](NC(=O)[C@H](CCCNC(=N)N)NC(=O)[C@H](CC(C)C)NC(=O)[C@H](CC(N)=O)NC(=O)[C@H](CO)NC(=O)[C@@H](NC(=O)[C@@H](NC(=O)[C@H](CC(N)=O)NC(=O)[C@H](Cc1ccccc1)NC(=O)[C@H](CC(C)C)NC(=O)[C@H](CCCCN)NC(=O)[C@H](CCC(=O)O)NC(=O)[C@H](CCC(=O)O)NC(=O)[C@H](CCCNC(=N)N)NC(=O)CCCCCNC(=O)CCCC[C@@H]1SC[C@@H]2NC(=O)N[C@@H]21)C(C)C)[C@@H](C)O)C(=O)N[C@@H](CC(N)=O)C(=O)N[C@H](C(N)=O)[C@@H](C)O [Biotin-L7N] ({Biotin-Ahx}-REEKLFNVTSNLRINT-NH2)

Molecule: REEKLFNVTSNLRINT-NH2 [L7N]
Toxicity to cells (cells): no significant toxicity
Immune reactions of mice [1]: adverse immune reactions

solubility (physchem): < 10000 µg/mL
Molecule: REEKLFNVTSTLRINT-NH2 [L7]

Binding to albumin (pulldown, SDS-PAGE) (albumin (HSA, BSA, FBS)): no binding
Molecule: CC[C@H](C)[C@H](NC(=O)[C@H](CCCNC(=N)N)NC(=O)[C@H](CC(C)C)NC(=O)[C@H](CC(N)=O)NC(=O)[C@H](CO)NC(=O)[C@@H](NC(=O)[C@@H](NC(=O)[C@H](CC(N)=O)NC(=O)[C@H](Cc1ccccc1)NC(=O)[C@H](CC(C)C)NC(=O)[C@H](CCCCN)NC(=O)[C@H](CCC(=O)O)NC(=O)[C@H](CCC(=O)O)NC(=O)[C@H](CCCNC(=N)N)NC(=O)CCCCCNC(=O)[C@H](CCC(=O)O)NC(=O)[C@H](Cc1ccc(O)cc1)NC(=O)[C@H](CCC(=O)O)NC(=O)[C@H](CCCCN)NC(=O)[C@H](CCC(=O)O)NC(=O)[C@H](Cc1ccc(O)cc1)NC(=O)[C@H](CCC(=O)O)NC(=O)CCCCCNC(=O)CCCC[C@@H]1SC[C@@H]2NC(=O)N[C@@H]21)C(C)C)[C@@H](C)O)C(=O)N[C@@H](CC(N)=O)C(=O)N[C@H](C(N)=O)[C@@H](C)O [Biotin-EYEKEYE-L7N]

binding result (human serum albumin): binds
binding result (bovine serum albumin): binds
B1: Biotin-PA-scramble (peptide)
peptide: EYEKEYETKLREIFVNLRTNSEN
modifications: biotin-ahx at the N-terminus; palmitic acid on the Lys side chain of EYEKEYE; ahx (6-aminohexanoic acid) between EYEKEYE and the peptide
notes: peptide tag that carries palmitic acid on its Lys; also called biotin–PA–scrambled peptide; PA-coupled scramble peptide; source: synthetic peptide (Fmoc chemistry); not shown: biotin, N-terminal, kept
